Experimental findings from patent US5028733A, “Prostaglandins” (National Research Development Corporation, priority 1980, dated 1991) are described below.

In general, Kb refers to the equilibrium dissociation constant of an antagonist, usually derived from a functional assay.

Assay type in all cases: cell-based
For assay [1], the system named is rabbit aorta. Put plainly: Rabbit aorta strip, antagonism of contraction by 11,9-(epoxymethano) PGH2 (affinity constant KB). The conditions noted are these: for Kb: vs 11,9-(epoxymethano) PGH2, 37° C, compound added 30 min before, Gaddum-Schild, read-out: Affinity Constants, Rabbit Aorta (KB) (converted). As for the experimental part: Spiral strips of thoracic aorta are suspended in Kreb's-Henseleit solution and aerated with 95% O2 /5% CO2 at 37° C. Tension changes are recorded with a Glass FTO3 force transducer. Initially, cumulative dose response curves to 11,9-(epoxymethano) PGH2 (2×10^-9, 1×10^-8, 5×10^-8 and 2.5×10^-7 M) are obtained. In a second experiment the individual compounds are added 30 minutes previous to the addition of the series of agonist doses. In the case of each compound, the affinity constant, KB, for the compound is calculated according to the Gaddum - Schild Equation (based on Law of Mass Action).
(§1) [B]=molar concentration of compound

For assay [2], the target named is T1, human platelets (Homo sapiens, UniProt P21731).
T1 construct: Platelet-rich plasma is obtained from fresh, citrated human blood; endogenous in cells; host or cells: human platelets in platelet-rich plasma
T1 sequence (P21731 1-343): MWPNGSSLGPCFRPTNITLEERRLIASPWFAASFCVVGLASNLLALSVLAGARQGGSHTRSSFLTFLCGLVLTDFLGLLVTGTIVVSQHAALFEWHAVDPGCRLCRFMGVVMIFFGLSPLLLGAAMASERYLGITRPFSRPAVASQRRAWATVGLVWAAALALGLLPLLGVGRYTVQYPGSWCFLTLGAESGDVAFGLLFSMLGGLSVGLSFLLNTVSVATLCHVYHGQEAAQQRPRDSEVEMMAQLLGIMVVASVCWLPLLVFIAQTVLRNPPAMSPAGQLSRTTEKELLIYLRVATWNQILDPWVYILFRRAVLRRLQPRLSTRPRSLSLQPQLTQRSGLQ
As to the kind of experiment: Human platelet system, antagonism of aggregation by 11,9-(epoxymethano) PGH2 (affinity constant KB). The conditions noted are these: for Kb: vs 11,9-(epoxymethano) PGH2, compound added 5 min before, Gaddum-Schild, read-out: Affinity Constants, Human Platelets (KB) (converted). As for the experimental part: Platelet-rich plasma is obtained from fresh, citrated human blood. Addition of the 11,9-(epoxymethano) PGH2 (1×10^-7 to 5×10^-7 M) causes immediate aggregation recorded as an increase in light transmission (600 nm). In a second experiment the individual compounds are added five minutes previous to the addition of the PGH2 analogue. The dose of the PGH2 analogue added is then increased to a level which gives a similar response to that obtained in the absence of antagonist. The affinity constant, KB, for the compound is calculated according to the Gaddum - Schild Equation (based on Law of Mass Action).
as §1

The test system of assay [3] is platelet. As to the kind of experiment: Block of the aggregatory action of arachidonic acid on platelets. To be noted: in words.
The subject of assay [4] is rabbit aorta. Put plainly: Block of the contractile action of noradrenaline in the rabbit aorta strip test. The conditions noted are these: in words.

In the case of `CC1(C)[C@H]2C[C@H](C=NNC(=S)Nc3ccccc3)[C@@H](C/C=C\CCCC(=O)O)[C@@H]1C2`, the Kb was 1.67 µM in assay [1] and 2.86 µM in assay [2]. The matching figures for `CC(=NNC(=O)Nc1ccccc1)[C@H]1C[C@H]2C[C@@H]([C@@H]1C/C=C\CCCC(=O)O)C2(C)C`: 0.357 µM and 0.909 µM.

Take `O=C(O)CCCC=CCC1C(O)CCC1C=NOCc1ccc(F)cc1` (centres unmarked): the Kb in assay [1] was 2.5 µM. For the compound `O=C(O)CCC/C=C\C[C@H]1[C@H]2CC[C@H](C2)[C@@H]1C=NNC(=S)Nc1ccccc1` (relative stereo), the Kb in assay [1] is 0.526 µM; in assay [2], 0.263 µM.

As to `CC(=NNC(=S)Nc1cccc(F)c1)[C@H]1[C@@H]2CC[C@@H](C2)[C@@H]1C/C=C\CCCC(=O)O` (relative stereo), the Kb in assay [1] was 0.0704 µM; in assay [2], 0.0455 µM. The matching figures for `COc1cccc(NC(=S)NN=C(C)[C@H]2[C@@H]3CC[C@@H](C3)[C@@H]2C/C=C\CCCC(=O)O)c1` (relative stereo): 0.0952 µM and 0.118 µM. The like results for `COc1ccc(NC(=S)NN=C(C)[C@H]2[C@@H]3CC[C@@H](C3)[C@@H]2C/C=C\CCCC(=O)O)cc1` (relative stereo) were, in that order, 0.213 µM and 0.102 µM. Consider `CC(=NNC(=S)Nc1cccc(C(F)(F)F)c1)[C@H]1[C@@H]2CC[C@@H](C2)[C@@H]1C/C=C\CCCC(=O)O` (relative stereo), for which the Kb was 0.118 µM in assay [1] and 0.189 µM in assay [2]. Turning to `O=C(O)CCC/C=C\C[C@H]1C2CCC(CC2)[C@@H]1C=NNC(=O)Nc1ccccc1` (relative stereo), the Kb in assay [1] was 0.833 µM. For the compound `COc1ccc(NC(=O)NN=C(C)[C@H]2C3CCC(CC3)[C@@H]2C/C=C\CCCC(=O)O)cc1` (relative stereo), the Kb in assay [1] and in assay [2] was 0.0556 µM in each case.

As to `CC(=NNC(=S)Nc1ccccc1)[C@H]1C2CCC(CC2)[C@@H]1C/C=C\CCCC(=O)O` (relative stereo), the antagonist dissociation constant (Kb) was 0.0833 µM in assay [1] and 0.0476 µM in assay [2]. As to `CC(=NNC(=S)Nc1cccnc1)[C@H]1C2CCC(CC2)[C@@H]1C/C=C\CCCC(=O)O` (relative stereo), the Kb is 0.256 µM in assay [1] and 0.667 µM in assay [2].

For the compound `O=C(O)CCC/C=C\C[C@@H]1CC=CC[C@H]1C=NNC(=S)Nc1ccccc1` (relative stereo), the Kb in assay [1] was 1.1 µM; in assay [2] it was 0.5 µM.

Take `Cn1c(=NN=C[C@H]2[C@@H]3CC[C@@H](C3)[C@@H]2C/C=C\CCCC(=O)O)sc2ccccc21` (relative stereo): the results for the Kb in assay [1] and in assay [2] were 1.52 µM and 3.45 µM, respectively. Take `O=C(O)CCC/C=C\C[C@H]1[C@H]2CC[C@H](C2)[C@@H]1C=NN=C(c1ccccc1)c1ccccc1` (relative stereo): the Kb in assay [1] is 0.667 µM. Take `O=C(O)CCC/C=C\C[C@H]1[C@H]2CC[C@H](C2)[C@@H]1C=NNc1nc2ccccc2o1` (relative stereo): the Kb in assay [1] was 0.5 µM; in assay [2] it was 5.56 µM.

As to `O=C(O)CCC/C=C\C[C@H]1[C@H]2CC[C@H](C2)[C@@H]1C=NNC(=O)CN(Cc1ccccc1)Cc1ccccc1` (relative stereo), in assay [1], the Kb is 0.833 µM. Consider `Cc1ccc(S(=O)(=O)NN=C[C@H]2[C@@H]3CC[C@@H](C3)[C@@H]2C/C=C\CCCC(=O)O)cc1` (relative stereo), for which the Kb is 0.345 µM in assay [1] and 0.667 µM in assay [2]. The matching figures for `O=C(O)CCC/C=C\C[C@H]1[C@H]2CC[C@H](C2)[C@@H]1C=NOCCOC(c1ccccc1)c1ccccc1` (relative stereo): 10 µM and 4.35 µM. The matching figures for `O=C(O)CCC/C=C\C[C@@H]1CC=CC[C@H]1C=NOCc1ccc(F)cc1` (relative stereo): 0.385 µM and 8.33 µM. `O=C(O)CCC/C=C\C[C@H]1[C@H]2CC[C@H](C2)[C@@H]1C=NNC(=S)NCc1ccccc1` (relative stereo) [Example 1, 5-endo-(6'-Carboxyhex-2'Z-enyl)-6-exo-[N-(benzylthiocarbamoyl)-hydrazonomethyl]-bicyclo [2,2,1] heptane]: in assay [1] (in words), the “antagonist in the rabbit aorta strip test” value is recorded as “pure antagonists in the rabbit aorta strip test”. Further, the “antagonist in the platelet test” value in assay [2] (in words) is “antagonists in the platelet test”. The “aggregatory action of arachidonic acid” value in assay [3] is recorded as “block the aggregatory action of arachidonic acid”. Further, in assay [4], the “contractile action of noradrenaline (α-adrenoceptors)” value was “do not block the contractile action of noradrenaline”. Regarding `CCC(=NNC(=S)Nc1ccccc1)[C@H]1[C@@H]2CC[C@@H](C2)[C@@H]1C/C=C\CCCC(=O)O` (relative stereo) [Example 3, 5-endo-(6'-Carboxyhex-2'Z-enyl)-6-exo-{1'-[N-(phenylthiocarbamoyl)-hydrazono]-propyl}-bicyclo [2,2,1] heptane], the antagonist equilibrium constant (Kb) in assay [2] is 0.256 µM.

For `O=C(O)CCC/C=C\C[C@H]1[C@H]2CC[C@H](C2)[C@@H]1C=NNC(=S)NCc1ccccc1` (relative stereo) [drawing 41], the antagonist equilibrium constant (Kb) is 0.526 µM in assay [1] and 1.28 µM in assay [2]. The matching figures for `CC(=NNC(=S)Nc1ccccc1)[C@H]1[C@@H]2CC[C@@H](C2)[C@@H]1C/C=C\CCCC(=O)O` (relative stereo) [drawing 42]: 0.0909 µM and 0.05 µM.

For `CC1(C)[C@H]2C[C@H](C/C=C\CCCC(=O)O)C(C=NNC(=O)Nc3ccccc3)[C@@H]1C2` (single isomer, unassigned), the Kb in assay [1] is 0.333 µM; in assay [2], 2 µM.
